US10487054B2, “Therapeutic compounds” (REGENTS OF THE UNIVERSITY OF MINNESOTA, priority 2017, dated 2019)

Assays:
SCC12 cells = experiment: Western blot of TOPK downstream signaling; assay type: cell-based, human
Protocol: (§1) The cells were cultured, treated for 4 h with different concentrations of compound 1 and then exposed to SUV (60 kJ UVA/m^2 and 2.9 kJ UVB/m^2), followed by an additional 15-minute incubation. Cells were harvested and the levels of phosphorylated and total proteins were determined by Western blot analysis with specific antibodies as indicated. […] The cells were cultured and treated with different concentrations of compound 1 for 24 h. Cells were harvested and the levels of phosphorylated and total proteins were determined by Western blot analysis with specific antibodies as indicated. […] For the luciferase assay, JB6 P+ cells stably transfected with an AP-1 luciferase reporter plasmid were cultured. After starvation for 24 h, cells were treated for 1 h with compound 1 (0, 1.25, 2.5, or 5 μM). Cells were then exposed to SUV (60 kJ UVA/m^2 and 2.9 kJ UVB/m^2) and harvested 3 h later. Luciferase activity was measured and AP-1 activity is expressed relative to control cells without SUV treatment. […] Knockdown of TOPK in A431 cell line (left). Stable control or TOPK knockdown cells were co-transfected with 100 ng of the AP-1 luciferase reporter plasmid and 50 ng of internal control […] plasmid. Cells were transfected using iMFectin poly DNA transfection reagent (GenDEPOT) according to the manufacturer's instructions. After 12 h of transfection, cells were incubated with the different concentrations of compound 1 for another 24 h. Luciferase and […] activities were measured using reagents included in the reporter assay system (right). Data are shown as mean values±S.D obtained from triplicate experiments. Significant differences were evaluated using one-way ANOVA and the asterisks (*) indicate a significant effect (*, p<0.05; **, p<0.001; ***, p<0.0001).
(§2) HaCaT or JB6 P+ cells (1×10^6) were cultured in 10-cm dishes for 24 h and then the medium was replaced with 0.1% FBS medium for 24 h. Cells were then treated with different concentrations of compound 1 for 4 h followed by exposure to SUV (60 kJ UVA/m^2 and 2.9 kJ UVB/m^2). After SUV, cells were incubated for 15 min at 37° C. in a 5% CO2 humidified incubator. SCC12 and A431 cells (1.5×10^6) were cultured in 10-cm dishes overnight and then starved for 24 h. Cells were then treated with different concentrations of compound 1 for an additional 24 h. Protein concentration in cell lysates was determined using a protein assay kit (Bio-Rad Laboratories, Hercules, Calif.). Equal amounts of proteins were resolved by SDS-PAGE and then transferred onto polyvinylidene difluoride (PVDF) membranes (EMD Millipore Corp., Billerica, Mass.) and membranes were blocked with 5% nonfat milk for 1 h at room temperature. […]

A431 cells = experiment: Western blot of TOPK downstream signaling; assay type: cell-based, human
Protocol: as §1, §2

active TOPK = biological target: T1, active TOPK (Homo sapiens, UniProt Q96KB5); experiment: In vitro kinase assay ([γ-32P] ATP, autoradiography); assay type: biochemical; details: 0.5, 1, 3 or 5 μM
T1 construct: purchased SignalChem (Richmond, BC, Canada)
T1 sequence (Q96KB5 1-322): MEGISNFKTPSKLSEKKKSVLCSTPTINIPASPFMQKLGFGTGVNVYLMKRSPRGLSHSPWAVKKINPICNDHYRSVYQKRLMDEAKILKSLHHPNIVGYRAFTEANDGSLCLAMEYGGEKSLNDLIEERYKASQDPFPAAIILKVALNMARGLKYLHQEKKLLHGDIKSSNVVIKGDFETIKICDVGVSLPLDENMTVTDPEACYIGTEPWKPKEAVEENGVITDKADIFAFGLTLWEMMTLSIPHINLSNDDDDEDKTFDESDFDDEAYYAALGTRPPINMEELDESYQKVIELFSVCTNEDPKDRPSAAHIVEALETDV
Protocol: Active TOPK (200 ng) was incubated with different concentrations of ATP (0, 10 or 100 μM) and then mixed with compound 1-conjugated Sepharose 4B beads or Sepharose 4B beads. Proteins were pulled down and analyzed by Western blot. Data are representative of 3 independent experiments that gave similar results. FIGS. 2C and 2D show compound 1 binds to either TOPK (2C) or MEK1/2 (2D) ex vivo. Lysates from HaCaT cells (500 μg) were incubated with compound 1-conjugated Sepharose 4B beads or Sepharose 4B beads alone and the pulled-down proteins were analyzed by Western blot. Data are representative of 3 independent experiments that gave similar results. FIGS. 2E and 2F show compound 1 inhibits TOPK kinase (2E) activity but not MEK1 kinase (2F) activity in vitro. Active TOPK (200 ng) was mixed with compound 1 (0, 0.5, 1, 3, or 5 μM) or HI-032 (TOPK inhibitor, 10 μM) and then incubated with a [γ-^32P] ATP mixture. Similarly, MEK1 (200 ng) was mixed with compound 1 (0, 0.5, 1, 3, 5, or 10 μM) or PD098059 (MEK1 inhibitor, 5 μM) and then incubated with a [γ-^32P] ATP mixture. For 2E and 2F, the results are visualized by autoradiography and Coomassie blue staining serves as a loading control. […]
The in vitro kinase assay was conducted according to the instructions provided by Millipore (Billerica, Mass.). […] The relative amounts of incorporated radioactivity were assessed by autoradiography.

TOPK kinase activity (active TOPK): effectively inhibited
Structure (SMILES): O=C1Nc2ccc(C34CC5CC(CC(C5)C3)C4)cc2C1=NO [compound 1, 5-(adamantan-1-yl)-3-(hydroxyimino)indolin-2-one]
phosphorylated c-Jun protein levels (SCC12 cells): blocked dose-dependently
phosphorylation of ERK1/2, p38, and JNKs (SCC12 cells; 24 h, dose-dependently): blocked
phosphorylated c-Jun protein levels (A431 cells): blocked dose-dependently
phosphorylation of ERK1/2, p38, and JNKs (A431 cells; 24 h, dose-dependently): blocked
